Laboratory results taken from publication PMC9006239, “Synthesis of potent and selective HDAC6 inhibitors led to unexpected opening of a quinazoline ring” (RSC Advances, 2022).
Like-named read-outs stand apart in the source and are kept apart here.

What was measured:
HDAC6 = conditions: cited from earlier work
human HDAC1 = human HDAC1 (Homo sapiens, UniProt Q13547); test: In vitro inhibitory activity on purified recombinant HDAC1 (fluorogenic peptide assay, Reaction Biology Corp.)
Experimental: (§1) In vitro tests on HDAC6, HDAC1 and HDAC8 were performed at Reaction Biology Corp. with modalities described below. […] The compounds were dissolved in DMSO and tested with 3-fold serial dilution starting from 100 μM. The enzymatic assays were performed by adding HDAC6 and the ligand solutions in the reaction buffer described above. […] IC50 values were calculated by using the GraphPad Prism 4 program based on a sigmoidal dose–response equation. The blank (DMSO) value concentration was entered as 1.00 × 10^−12 M for curve fitting.
(§2) using the GraphPad Prism4 program based on a sigmoidal dose-response equation.

human HDAC6 = target: T1, human HDAC6 (Homo sapiens, UniProt Q9UBN7); test: In vitro inhibitory activity on purified recombinant HDAC6 (fluorogenic peptide assay, Reaction Biology Corp.); format: biochemical; conditions: for selectivity for HDAC6 with respect to HDAC1: HDAC6 vs HDAC1, from the IC50 values of Table 2; for selectivity for HDAC6 with respect to HDAC8: HDAC6 vs HDAC8, from the IC50 values of Table 2; for IC50: purified recombinant enzyme, RHKK-Ac-AMC substrate, singlet 10-dose, 3-fold serial dilution
T1 construct: purchased Reaction Biology Corp. (contract assay)
T1 sequence (Q9UBN7 1-1215): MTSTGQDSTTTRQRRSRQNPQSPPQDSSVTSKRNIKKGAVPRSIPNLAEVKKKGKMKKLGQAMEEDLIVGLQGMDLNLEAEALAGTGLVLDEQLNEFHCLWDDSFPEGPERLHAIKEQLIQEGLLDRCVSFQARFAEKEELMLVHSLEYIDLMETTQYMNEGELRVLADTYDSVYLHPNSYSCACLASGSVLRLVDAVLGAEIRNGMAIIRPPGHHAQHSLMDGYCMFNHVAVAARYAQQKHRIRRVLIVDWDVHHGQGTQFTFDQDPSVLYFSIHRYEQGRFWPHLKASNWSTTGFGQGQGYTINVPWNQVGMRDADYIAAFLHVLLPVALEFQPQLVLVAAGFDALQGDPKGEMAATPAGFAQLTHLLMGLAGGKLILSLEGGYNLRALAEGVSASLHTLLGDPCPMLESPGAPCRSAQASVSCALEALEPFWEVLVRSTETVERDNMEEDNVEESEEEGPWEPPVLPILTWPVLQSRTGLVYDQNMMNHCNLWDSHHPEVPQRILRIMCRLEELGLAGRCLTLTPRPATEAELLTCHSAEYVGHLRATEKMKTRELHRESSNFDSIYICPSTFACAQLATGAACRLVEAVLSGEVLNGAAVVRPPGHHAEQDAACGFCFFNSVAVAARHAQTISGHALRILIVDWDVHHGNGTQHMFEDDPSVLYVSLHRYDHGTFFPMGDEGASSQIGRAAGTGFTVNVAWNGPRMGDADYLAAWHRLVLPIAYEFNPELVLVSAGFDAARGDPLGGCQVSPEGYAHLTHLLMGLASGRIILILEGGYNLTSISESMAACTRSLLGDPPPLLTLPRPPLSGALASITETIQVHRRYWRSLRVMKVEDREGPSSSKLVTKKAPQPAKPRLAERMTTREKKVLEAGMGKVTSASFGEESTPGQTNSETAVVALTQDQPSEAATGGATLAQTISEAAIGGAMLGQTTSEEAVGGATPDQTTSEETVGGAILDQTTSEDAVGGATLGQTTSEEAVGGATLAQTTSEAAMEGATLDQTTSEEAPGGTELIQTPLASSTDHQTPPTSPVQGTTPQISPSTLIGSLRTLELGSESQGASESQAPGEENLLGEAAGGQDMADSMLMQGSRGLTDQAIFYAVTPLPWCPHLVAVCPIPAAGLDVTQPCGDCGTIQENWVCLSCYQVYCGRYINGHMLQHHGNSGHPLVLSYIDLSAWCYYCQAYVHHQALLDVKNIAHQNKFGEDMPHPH
Experimental: Figure S1. […] All compounds were tested in singlet
IC50 values were calculated
Figure S2. […] All compounds were tested in singlet
Figure S3. […] All compounds were tested in singlet

human HDAC8 = target: T2, human HDAC8 (Homo sapiens, UniProt Q9BY41); test: In vitro inhibitory activity on purified recombinant HDAC8 (fluorogenic peptide assay, Reaction Biology Corp.)
T2 sequence (Q9BY41 1-377): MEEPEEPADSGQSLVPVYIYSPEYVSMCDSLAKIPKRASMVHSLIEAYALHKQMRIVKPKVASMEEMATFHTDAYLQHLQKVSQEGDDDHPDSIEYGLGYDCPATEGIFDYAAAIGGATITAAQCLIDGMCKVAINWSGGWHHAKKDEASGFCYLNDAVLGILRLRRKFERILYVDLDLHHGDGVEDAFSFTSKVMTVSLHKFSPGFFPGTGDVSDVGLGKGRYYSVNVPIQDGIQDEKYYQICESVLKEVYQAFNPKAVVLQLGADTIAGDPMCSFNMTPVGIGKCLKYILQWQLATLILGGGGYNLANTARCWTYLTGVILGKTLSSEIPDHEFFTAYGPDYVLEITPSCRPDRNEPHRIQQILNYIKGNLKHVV
Experimental: as §1, §2

[1] = known quinazoline-capped inhibitors, Fig. 1

Chain of human HDAC1 (Q13547 whole entry): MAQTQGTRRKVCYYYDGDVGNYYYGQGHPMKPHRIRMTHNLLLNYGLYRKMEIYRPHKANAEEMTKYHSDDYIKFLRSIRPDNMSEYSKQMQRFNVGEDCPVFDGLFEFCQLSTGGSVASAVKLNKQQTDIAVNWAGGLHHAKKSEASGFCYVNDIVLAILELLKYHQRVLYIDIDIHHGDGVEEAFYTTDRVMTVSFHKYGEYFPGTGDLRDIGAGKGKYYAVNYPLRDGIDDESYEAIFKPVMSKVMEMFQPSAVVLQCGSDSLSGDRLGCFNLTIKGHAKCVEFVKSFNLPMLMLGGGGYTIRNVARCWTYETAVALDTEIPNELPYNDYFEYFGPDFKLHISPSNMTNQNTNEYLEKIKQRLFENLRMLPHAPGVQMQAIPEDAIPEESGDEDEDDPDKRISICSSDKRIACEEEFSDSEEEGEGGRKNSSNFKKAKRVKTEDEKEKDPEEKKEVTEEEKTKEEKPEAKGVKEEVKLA

IC50 (human HDAC1) [µM]	selectivity for HDAC6 with respect to HDAC1 (human HDAC6)	selectivity for HDAC6 with respect to HDAC8 (human HDAC6)	IC50 (human HDAC6) [nM]	IC50 (human HDAC8) [µM]	melting point	Compound	IC50 (HDAC6; [1]) [µM]	other results
–	–	–	–	–	–	COc1ccc(N(C)c2nc(C)nc3ccccc23)cc1OCCCC(=O)NO [Compound 1]	0.017	–
–	–	–	–	–	–	COc1ccc(N(C)c2nc(C)nc3ccccc23)cc1NC(=O)CCC(=O)NO [Compound 2]	0.016	–
–	–	–	–	–	–	COc1ccc(N(C)c2nc(C)nc3ccccc23)cc1NC(=O)CCCC(=O)NO [Compound 3]	0.035	–
–	–	–	–	–	–	COc1cc2nc(NCCCCCCC(=O)NO)nc(NC3CCN(C(C)C)CC3)c2cc1OC [Compound 5]	–	IC50 (HDAC6; most active quinazoline inhibitor reported so far): 0.012 µM
6.08	more than 12 000 fold	> 1000 fold	0.5	0.653	< 267 °C (dec.)	Nc1nc2c3ccc(Cc4ccc(C(=O)NO)cc4)cc3nc(Cc3ccc4c(c3)OCO4)n2n1 [Compound 11a, 4-((2-Amino-5-(benzo[d][1,3]dioxol-5-ylmethyl)-[1,2,4]triazolo[1,5-c]quinazolin-8-yl)methyl)-N-hydroxybenzamide]	–	–
1.82	> 18 000 fold	> 15 000 fold	0.1	1.56	< 264 °C (dec.)	Nc1n[nH]c(-c2cc(Cc3ccc(C(=O)NO)cc3)ccc2NC(=O)Cc2ccc3c(c2)OCO3)n1 [Compound 18, 4-(3-(3-Amino-1H-1,2,4-triazol-5-yl)-4-(2-(benzo[d][1,3]dioxol-5-yl)acetamido)benzyl)-N-hydroxybenzamide]	–	–
